Results as given in the OligoGym collection.
These antisense oligonucleotides have a phosphorothioate backbone; sugars and methylation of C are not fully specified.

Each sequence was assayed against MAP2K4. Conditions: ASO.
Also: test concentration or dose not given here.

First: AAATTTGGCTGAGCACATCG
Second: AACACCAATCTTATTGCACA
The remaining target (mRNA or protein) (fraction of control) of the first is lower: 0.53 for the first, 0.98 for the second.

AAGGATGCACGTTCTAGGTG and AATCGACATACATGGGAGAG are the same in remaining target (mRNA or protein) (fraction of control): 0.55 for the first, 0.55 for the second.

Compared with ACCACTCACAGTGCTGCTTC, AGACCTGGACCAGTGATGGC is lower in remaining target (mRNA or protein) (fraction of control): 0.68 for the first, 0.6 for the second.

Going from ATATTTCCACTTCTGTCCAG to ATGCTGCTGACGGCCGGGTG, the remaining target (mRNA or protein) (fraction of control) rises from 0.67 to 0.76.

First: ATGGAGGATGATGGCTTGCT
Second: ATGGGAGAGCTGGGAGTAGC
The remaining target (mRNA or protein) (fraction of control) of the first is lower: 0.83 for the first, ≥ 1 for the second.

Compared with CAACTTCAGTGCTTTGCGTT, CACACAATAGAACGGTCAGA is higher in remaining target (mRNA or protein) (fraction of control): 0.42 for the first, 0.9 for the second.

Compared with CACCTTCTTTGACAAGTGGC, CACTACTCCGCATTACTACA is higher in remaining target (mRNA or protein) (fraction of control): 0.42 for the first, 0.56 for the second.

First: CAGTCTCTCTATGTGTGGGT
Second: GAAATATATAGCTGCTACAA
The remaining target (mRNA or protein) (fraction of control) of the first is lower: 0.69 for the first, ≥ 1 for the second.

GAGATAATCACTTTTGAATT and GAGCCGCCGCCGCCGCTCGG cannot be ordered by remaining target (mRNA or protein) (fraction of control): ≥ 1 for the first, ≥ 1 for the second.

Compared with GAGTAAACCTTGCTGTAGAT, GATATCAATCGACATACATG is higher in remaining target (mRNA or protein) (fraction of control): 0.73 for the first, 0.83 for the second.

First: GATCCTCATCTGGTCCAATG
Second: GATTTTGCCTAAAATTTCTT
The remaining target (mRNA or protein) (fraction of control) of the first is lower: 0.6 for the first, ≥ 1 for the second.

GCCTCTTGTAACAGTGCTGA and GCTCGGGCTCGGAGCCGCCA are the same in remaining target (mRNA or protein) (fraction of control): 0.47 for the first, 0.47 for the second.

First: GCTGTGCAAGCTCTTCTCAC
Second: GGAGACACAGCAATACGTGC
The remaining target (mRNA or protein) (fraction of control) of the first is higher: 0.63 for the first, 0.61 for the second.

Going from GGAGCCGCCATTGTTGGGAG to GGCTCGGAGCCGCCATTGTT, the remaining target (mRNA or protein) (fraction of control) falls from 0.91 to 0.56.

Going from GTCTGATGTAGCAGCGATAT to GTGAAATCCCAGTGTTGTTC, the remaining target (mRNA or protein) (fraction of control) rises from 0.53 to 0.91.

First: GTTCATCACAAAAGAGCAGG
Second: TAGAAATGAATTTAAGATGT
The remaining target (mRNA or protein) (fraction of control) of the first is lower: 0.89 for the first, ≥ 1 for the second.

Compared with TAGAGTCTGATGTAGCAGCG, TAGCAGCGATATCAATCGAC is lower in remaining target (mRNA or protein) (fraction of control): 0.79 for the first, 0.55 for the second.

TATCACATCAGTAATCTATT and TATTTTAATGTTCACCTCTT cannot be ordered by remaining target (mRNA or protein) (fraction of control): ≥ 1 for the first, ≥ 1 for the second.

First: TGATGTAGCAGCGATATCAA
Second: TGTGTCCTTCCAGGATTTGG
The remaining target (mRNA or protein) (fraction of control) of the first is higher: 0.72 for the first, 0.7 for the second.

Going from TTTAAACACTAGCGATTATG to TTTGTTTTAATAAAGATACA, the remaining target (mRNA or protein) (fraction of control) falls from ≥ 1 to 0.88.

What follows are sequences tested against BIRC3. Conditions: ASO.

ATATAACACAGCTTCAGC and ATTTGTTACTGAAGAAGG cannot be ordered by remaining target (mRNA or protein) (fraction of control): ≥ 1 for the first, ≥ 1 for the second.

Going from ATTTTAATTAGAAGCACT to CAAACGTGTTGGCGCTTT, the remaining target (mRNA or protein) (fraction of control) falls from ≥ 1 to 0.65.

First: CACAAGACCTAACTCAAA
Second: CATGTCCCTAAAATGTCA
The remaining target (mRNA or protein) (fraction of control) of the first is lower: 0.73 for the first, ≥ 1 for the second.

CCTTCGATGTATAGGACA and CTAACTCAAAGGAGGAAA cannot be ordered by remaining target (mRNA or protein) (fraction of control): ≥ 1 for the first, ≥ 1 for the second.

Going from CTGAAATTTTGATTGAAT to CTTAGAGGTACGTAAAAT, the remaining target (mRNA or protein) (fraction of control) falls from 0.86 to 0.71.

Compared with CTTCTCCAGGCTACTAGA, GAAACCAAATTAGGATAA is higher in remaining target (mRNA or protein) (fraction of control): 0.5 for the first, 0.88 for the second.

Compared with GCACTTTTATTTCTTAGA, GCAGCATTAATCACAGGA is higher in remaining target (mRNA or protein) (fraction of control): 0.3 for the first, ≥ 1 for the second.

Going from GCATGGCTTTGCTTTTAT to GCTCTGCTGTCAAGTGTT, the remaining target (mRNA or protein) (fraction of control) falls from ≥ 1 to 0.43.

First: GGGTCTCAGTATGCTGCC
Second: GGTCAACTTCTCCAGGCT
The remaining target (mRNA or protein) (fraction of control) of the first is higher: 0.79 for the first, 0.35 for the second.

GTAAGTAATCTGGCATTT and TAAAACCCTTCACAGAAG cannot be ordered by remaining target (mRNA or protein) (fraction of control): ≥ 1 for the first, ≥ 1 for the second.

Compared with TACAATTTCAATAATGCT, TCATCTCCTGGGCTGTCT is lower in remaining target (mRNA or protein) (fraction of control): 0.62 for the first, 0.6 for the second.

TGAAGTGTCTTGAAGCTG and TGGCTTGAACTTGACGGA cannot be ordered by remaining target (mRNA or protein) (fraction of control): ≥ 1 for the first, ≥ 1 for the second.

Going from TGTAGTGCTACCTCTTTT to TGTGTGACTCATGAAGCT, the remaining target (mRNA or protein) (fraction of control) rises from 0.31 to 0.77.

TTAACGGAATTTAGACTC and TTAAGGAAGAAATACACA cannot be ordered by remaining target (mRNA or protein) (fraction of control): ≥ 1 for the first, ≥ 1 for the second.

TTCAGTGGCATTCAATCA was tested, and the remaining target (mRNA or protein) (fraction of control) was 0.77.
